Experimental data published in publication PMC12114750 (Pharmaceuticals, 2025).
Where two headings read alike, the source gives them in different places.

What was measured:
FL83B hepatocytes = assay: Cytotoxicity (in vitro hepatotoxicity) MTT assay, FL83B; format: cell-based; conditions: 24 h, normal murine hepatocytes
Method: (§1) Hepatocyte cells (FL83B; ATCC: CLR-2390) were cultured in F-12K medium. Human neuroblastoma (SH-SY5Y; ATCC: CRL-2266) cells were cultivated in DMEM/F12 medium. All media were supplemented with fetal bovine serum (10%) (Biowest, Riverside, MO, USA) and 1% antibiotic/antimycotic solution (Biowest, Nuaill’e, France).
(§2) Cells were seeded at an appropriate density to promote optimal growth, and the culture medium was replaced every 48 h. Once cells reached 80–90% confluence, subculture was performed using 0.25% trypsin-EDTA to dissociate the cells, by 2 min and put inside of chamber during 5 min, according to the protocol provided by the biobanks. The cell lines were maintained at 37 °C in a humidified incubator with 5% CO2 and 95% humidity.
(§3) Cells were seeded in 96-well plates (HepG-2: 2.5 ×10^4 cells; HCT-15: 2.5 × 10^4 cells/mL; MCF-7: 2.5 × 10^4 cells/mL; SH-SY5Y: 5.0 × 10^4 cells/mL; FL83B: 5.0 × 10^4 cell/mL; DU-145: 5.0 × 10^4 cell/mL). Cancer cell lines were exposed to compounds (100 μM) for 24 h and vehicle/controls were included to assess potential solvent interference. Cell viability was assessed using MTT assay. Then, the culture medium was removed and 100 μL of MTT (0.5 mg/mL) was added to each cell. Cells were incubated for 1 h in the dark under the same culture condition (37 °C, 5% CO2, 95% humidity). After incubation, the intracellular formazan crystals were solubilized with 100 μL DMSO and, after […], the absorbance was measured at 570 nm using a microplate reader (Synergy H1). […] Results were expressed as a percentage of control untreated cells and the half-maximal inhibitory concentration (IC50) values were determined using nonlinear regression analysis (GraphPad Prism, 8.1, GraphPad Software, San Diego, CA, USA).

[1] = system: HCT-15 (colorectal adenocarcinoma); assay: cells; format: cell-based, human; conditions: for IC50: Homo sapiens, HCT-15, 24 h, MTT
Method: (§4) Breast adenocarcinoma cells (MCF-7; DSMZ: ACC 115), colon adenocarcinoma cells (HTC-15; DSMZ: CCL-225), and prostate cells (DU-145; ATCC: HRB-81) were cultured in RPMI 1640 medium.
as §2, §3

[2] = system: DU-145 (prostate adenocarcinoma); assay: Cytotoxicity MTT assay, DU-145; format: cell-based, human; conditions: for IC50: 24 h, MTT
Method: as §4, §2, §3

[3] = system: SH-SY5Y neuroblastoma cell line; assay: Cytotoxicity MTT assay, SH-SY5Y; format: cell-based, human; conditions: 24 h
Method: as §1, §2, §3

[4] = system: MCF-7 (breast adenocarcinoma); assay: cells; format: cell-based; conditions: for IC50: Homo sapiens, MCF7, 24 h, MTT
Method: as §4, §2, §3

[5] = system: differentiated SH-SY5Y neuroblastoma cells; assay: Neuroprotective capacity on a Parkinson's disease cellular model (6-OHDA, MTT); conditions: 6-OHDA 100 μM, 24 h
Method: Only at these non-toxic concentrations (0.01–10 µM; 24 h) were the compounds subsequently tested for their neuroprotective potential in an in vitro PD damage model using differentiated SH-SY5Y neuroblastoma cells. The cells, previously differentiated to obtain a dopaminergic neuronal phenotype [52], were treated with compounds in the presence of the neurotoxin 6-OHDA (100 µM). The cells’ viability was estimated using the 3-(4,5-dimethylthiazol-2-yl)−2,5-diphenyltetrazolium bromide (MTT) assay.
Cells were differentiated to obtain dopaminergic neuronal phenotype according to [52], with slight modifications. […] At the end of the 8th day, the cytotoxicity assay was performed.
Cell viability on SH-SY5Y cells was evaluated after exposure to the compounds at 10 μM for 24 h. […] The cell viability and neuroprotective effects were assessed by a colorimetric assay based on the reduction of tetrazolium salts MTT (VWR, Solon, OH, USA) to blue formazan products, according to [61]. Saponin (Sigma-Aldrich, Steinheim, Germany) was used as a positive control for inducing cellular death. The results were expressed as a percentage of the control (untreated cells).

[6] = target: T1, Acetylcholinesterase (from Electrophorus electricus) (Electrophorus electricus, UniProt O42275); assay: biochemical; conditions: read-out: AChE Inhibition (%)
T1 construct: purchased Sigma
Method: (§5) The inhibitory effects of the compounds on AChE and BChE were assessed by Elman’s method.
(§6) Acetylcholinesterase (from Electrophorus electricus), Butyrylcholinesterase (from equine serum), 5,5′-dithiobis-(2-nitrobenzoic acid) (DTNB), and acetylthiocholine iodide were purchased from Sigma.
Preparation of 50 mM Tris-HCl buffer solutions: Tris(hydroxymethyl)-aminomethane (606 mg) was dissolved in bidestilled water (100 mL) and adjusted with HCl to a pH of 8.0 ± 0.1. Buffers were freshly prepared and stored in the refrigerator. AChE solution 2.005 U/mL: The enzyme (271 U/mg, 0.037 mg) was dissolved in freshly prepared buffer pH 8.0 (5 mL) containing NaN3 (0.98 mg). BChE solution 2.040 U/mL: The enzyme (7.54 U/mg, 1.353 mg) was dissolved in freshly prepared buffer pH 8.0 (5 mL) containing NaN3 (0.98 mg). DTNB solution 3 mM: DTNB (23.8 mg) was dissolved in freshly prepared buffer pH 8.0 (20 mL) containing NaCl (116.8 mg) and MgCl2 (38.0 mg). […]
BMG Labtech Spectrostar Omega plate reader working in the slow kinetics mode and measuring the absorbance at a distinct wavelength of λ = 412 nm with center scanning mode was used for the enzymatic studies. […] The absorbance data were recorded under a controlled temperature of 30 °C for 30 min at 1 min intervals at l = 412 nm. The relative inhibition was determined as the quotient of the slopes (compound divided by blank) of the linear ranges (10 repetitions). […]

[7] = target: T2, Butyrylcholinesterase (from equine serum) (Equus caballus, UniProt P81908); assay: biochemical; format: biochemical; conditions: for Ki: read-out: BChE Ki; for inhibition at 50 µM: read-out: BChE Inhibition (%)
T2 construct: Butyrylcholinesterase (from equine serum); purchased Sigma; host or cells: equine serum
Method: as §5, §6
Preparation of 50 mM Tris-HCl buffer solutions: Tris(hydroxymethyl)-aminomethane (606 mg) was dissolved in bidestilled water (100 mL) and adjusted with HCl to a pH of 8.0 ± 0.1. Buffers were freshly prepared and stored in the refrigerator. AChE solution 2.005 U/mL: The enzyme (271 U/mg, 0.037 mg) was dissolved in freshly prepared buffer pH 8.0 (5 mL) containing NaN3 (0.98 mg). BChE solution 2.040 U/mL: The enzyme (7.54 U/mg, 1.353 mg) was dissolved in freshly prepared buffer pH 8.0 (5 mL) containing NaN3 (0.98 mg). DTNB solution 3 mM: DTNB (23.8 mg) was dissolved in freshly prepared buffer pH 8.0 (20 mL) containing NaCl (116.8 mg) and MgCl2 (38.0 mg). ATChI solution 15 mM: ATChI (43.4 mg) was dissolved in bidestilled water (10 mL). All solutions were stored in Eppendorf caps in the refrigerator or in the freezer, if necessary. […] The final concentrations for the enzymatic assay were obtained by diluting the stock solution with bidistilled water.
BMG Labtech Spectrostar Omega plate reader working in the slow kinetics mode and measuring the absorbance at a distinct wavelength of λ = 412 nm with center scanning mode was used for the enzymatic studies. In short, a mixture of a DTNB solution (125 µL, 3 mM in 50 mM Tris-HCl buffer, pH 8), enzyme solution (25 µL, 2 U/mL), and compounds solutions (25 µL, 3 different concentrations and water as a blank) was incubated at 30 °C for 20 min. The substrate (25 µL, [ATChI] = 0.9375 mM, 0.625 mM, […], 0.1875 mM) was added to start the enzymatic reaction. The absorbance data were recorded under a controlled temperature of 30 °C for 30 min at 1 min intervals at l = 412 nm. The relative inhibition was determined as the quotient of the slopes (compound divided by blank) of the linear ranges (10 repetitions). Galantamin was used as control substance. To determine the kinetic constants, standard linearization methods were used after applying an internal standard (Dixon/Cornish–Bowden plots) (triplicates).

T2 sequence (P81908 whole entry): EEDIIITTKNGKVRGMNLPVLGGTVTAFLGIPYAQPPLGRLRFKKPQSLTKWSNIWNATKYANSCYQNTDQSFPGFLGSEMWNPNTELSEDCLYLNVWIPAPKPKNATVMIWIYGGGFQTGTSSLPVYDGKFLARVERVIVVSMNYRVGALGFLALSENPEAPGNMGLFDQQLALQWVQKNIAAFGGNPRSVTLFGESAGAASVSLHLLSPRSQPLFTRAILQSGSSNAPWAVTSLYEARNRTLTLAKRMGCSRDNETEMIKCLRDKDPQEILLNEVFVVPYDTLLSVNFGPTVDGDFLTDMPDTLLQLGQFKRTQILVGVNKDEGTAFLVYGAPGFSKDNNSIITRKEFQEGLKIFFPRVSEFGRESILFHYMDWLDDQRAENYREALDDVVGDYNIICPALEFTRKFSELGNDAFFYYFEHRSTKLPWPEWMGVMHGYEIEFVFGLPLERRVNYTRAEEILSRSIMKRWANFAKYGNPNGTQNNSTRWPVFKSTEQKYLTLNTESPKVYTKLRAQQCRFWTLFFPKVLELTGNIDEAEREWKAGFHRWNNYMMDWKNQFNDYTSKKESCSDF
T1 sequence (O42275 24-633): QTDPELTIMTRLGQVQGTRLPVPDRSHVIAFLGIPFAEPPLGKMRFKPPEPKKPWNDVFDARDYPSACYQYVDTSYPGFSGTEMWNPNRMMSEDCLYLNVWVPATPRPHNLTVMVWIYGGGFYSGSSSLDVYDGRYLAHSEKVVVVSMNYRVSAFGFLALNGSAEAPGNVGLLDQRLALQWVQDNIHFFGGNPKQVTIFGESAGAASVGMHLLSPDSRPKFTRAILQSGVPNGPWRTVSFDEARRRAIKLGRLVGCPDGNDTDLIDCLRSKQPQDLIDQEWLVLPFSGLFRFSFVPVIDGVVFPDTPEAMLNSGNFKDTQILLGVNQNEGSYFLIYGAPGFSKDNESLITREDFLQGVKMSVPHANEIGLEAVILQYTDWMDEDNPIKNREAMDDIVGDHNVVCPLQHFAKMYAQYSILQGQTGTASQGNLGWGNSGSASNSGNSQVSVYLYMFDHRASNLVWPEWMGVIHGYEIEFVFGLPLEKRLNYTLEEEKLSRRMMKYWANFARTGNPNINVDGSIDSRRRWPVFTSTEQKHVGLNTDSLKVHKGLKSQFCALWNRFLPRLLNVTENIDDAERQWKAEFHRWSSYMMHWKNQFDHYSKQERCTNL

| Compound | IC50 (FL83B hepatocytes; Mus musculus, FL83B) [µM] | IC50 [1] [µM] | IC50 ([2]; Homo sapiens, DU-145) [µM] | IC50 ([3]; Homo sapiens, SH-SY5Y) [µM] | IC50 [4] [µM] | also measured |
| --- | --- | --- | --- | --- | --- | --- |
| O=c1[nH]cc(F)c(=O)[nH]1 [5-Fluorouracil, reference compound] | > 100 | 156 |  |  |  |  |
| N.N.[Cl][Pt][Cl] [Cisplatin, reference compound] |  |  |  |  |  | IC50 (FL83B hepatocytes): 25.7 µM; IC50 [2]: > 100 µM; IC50 [3]: 13.9 µM |
| CC(=O)O[C@@H]1CN(C(C)=O)C(=O)[C@H](OC(C)=O)[C@H]1OCc1ccccc1 [Compound 3, N-acetyl 2,4-di-O-acetyl-3-O-benzyl-D-xylono-1,5-lactam] |  | > 100 | > 100 | > 100 | > 100 |  |
| NCCc1cc(O)c(O)cc1O [Compound 6-OHDA, 6-hydroxydopamine] |  |  |  |  |  | reduction of differentiated SH-SY5Y cells' viability [5]: 40%; viable cells, 6-OHDA alone ([5]; MTT, % of control): 61.3 ± 1.4 % of viable cells |
| CC(=O)O[C@@H]1[C@@H](OCc2ccccc2)[C@@H](CN=[N+]=[N-])O[C@H]1n1cnc2c(Cl)ncnc21 [Compound 7, 9-(2-O-Acetyl-5-azido-3-O-benzyl-5-deoxy-β-D-xylofuranosyl)-6-chloropurine] | 22.7 | 72.7 | > 100 | > 100 | > 100 |  |
| CC(=O)O[C@@H]1[C@@H](OCc2ccccc2)[C@@H](CN=[N+]=[N-])O[C@H]1n1cnc2ncnc(Cl)c21 [Compound 8, 7-(2-O-acetyl-5-azido-3-O-benzyl-5-deoxy-β-D-xylofuranosyl)-6-chloropurine] |  | > 100 | > 100 | > 100 | > 100 |  |
| CC(=O)O[C@@H]1[C@@H](OCc2ccccc2)[C@@H](CN=[N+]=[N-])O[C@H]1n1ccc(=O)[nH]c1=O [Compound 9, 1-(2-O-Acetyl-5-azido-3-O-benzyl-5-deoxy-β-D-xylofuranosyl)uracil] |  | > 100 | > 100 | > 100 | > 100 |  |
| CC(=O)OC1C(OCc2ccccc2)C(CNC(=NC(=O)OC(C)(C)C)NC(=O)OC(C)(C)C)OC1n1cnc2c(Cl)ncnc21 [Compound 10, 9-{2-O-acetyl-3-O-benzyl-5-deoxy-5-[N′,N′′-bis(tert-butoxycarbonyl)]guanidino-β-D-xylofuranosyl}-6-chloropurine] | 73.7 | > 100 | 27.6 | > 100 | > 100 | inhibition at 50 µM [6]: 39.1 ± 0.9%; BChE inhibitory activity, fold higher than that of galantamine [7]: ca. 10 fold; BChE type of inhibition [7]: mixed-type; Ki ([7]; competitive component): 0.89 ± 0.08 µM; inhibition at 50 µM [7]: 83.8 ± 1.3%; BChE Ki′ ([7]; uncompetitive component): 2.96 ± 0.39 µM; Ki ([7]; uncompetitive component, listed as N^9 regioisomer): 2.96 µM |
| CC(=O)OC1C(OCc2ccccc2)C(CNC(=NC(=O)OC(C)(C)C)NC(=O)OC(C)(C)C)OC1n1cnc2ncnc(Cl)c21 [Compound 11, 7-(2-O-acetyl-3-O-benzyl-5-deoxy-5-[N′,N′′-bis(tert-butoxycarbonyl)]guanidino-β-D-xylofuranosyl)-6-chloropurine] | 24.1 | 64.1 | 24.5 | 12.1 | 43.7 | inhibition at 50 µM [6]: 34.6 ± 1.4%; effect against DU-145 cells, fold higher than cisplatin [2]: 4 fold; cytotoxicity in MCF-7 cells, fold lower than tamoxifen [4]: 1.6 fold; BChE Ki, fold higher than that of the N^9-counterpart [7]: ca. 2 fold; BChE inhibitory activity, fold higher than that of galantamine [7]: ~4 fold; BChE type of inhibition [7]: mixed-type; Ki ([7]; competitive component): 2.34 ± 0.2 µM; inhibition at 50 µM [7]: 65.2 ± 0.9%; BChE Ki′ ([7]; uncompetitive component): 10.6 ± 1.4 µM |
| CC(=O)O[C@@H]1[C@@H](OCc2ccccc2)[C@@H](CNC(=NC(=O)OC(C)(C)C)NC(=O)OC(C)(C)C)O[C@H]1n1ccc(=O)[nH]c1=O [Compound 12, 1-(2-O-Acetyl-3-O-benzyl-5-deoxy-5-[N′,N′′-bis(tert-butoxycarbonyl)]guanidino-β-d-xylofuranosyl)uracil] | > 100 | 76 | > 100 | > 100 | > 100 | cytotoxicity against HCT-15, fold higher (IC50 fold lower) than 5-fluorouracil [1]: ca. 2 fold |
| COc1ccc2c3c1O[C@H]1C[C@@H](O)C=C[C@@]31CCN(C)C2 [Galantamine, reference compound] |  |  |  |  |  | BChE type of inhibition [7]: competitive; inhibition at 50 µM [7]: 52 ± 0.5% |
